These results are taken from PubChem BioAssay AID220 (DTP/NCI, 2004).

The test system of this test is CD8F1 mice, subcutaneous mammary adenocarcinoma, T/C%. Description: NCI In Vivo Anticancer Drug Screen. Data for tumor model Mammary Adenocarcinoma CD8F1 (subcutaneous) in CD8F1. The note with it: higher = larger tumour. The method in brief: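 Antitumor activity is assessed in transplantable-tumor mice by comparing the treated group with a vehicle-treated control group. Survival or tumor size serves as the measure, reported as T divided by C.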

Where [1] appears, read: endpoint: median tumor weight (est.), dose: 6.25 mg/kg/injection, schedule: Q07DX005 (ip), vehicle: saline with Tween-80.
The mark [2] stands for this setting: endpoint: median tumor weight (est.), dose: 12.5 mg/kg/injection, schedule: Q07DX005 (ip), vehicle: saline with Tween-80.
Where [3] appears, read: endpoint: median tumor weight (est.), dose: 50.0 mg/kg/injection, schedule: Q07DX005 (ip), vehicle: Klucel (hydroxypropylcellulose) (HPC).
Where [4] appears, read: endpoint: median tumor weight (est.), dose: 100.0 mg/kg/injection, schedule: Q07DX005 (ip), vehicle: Klucel (hydroxypropylcellulose) (HPC).

The structures appear in SMILES notation. “And” between values parts separate entries of the source, which are not always exact repeats. Identical values can stand only once. Records with an inconclusive call do not appear.

Turning to `COc1cccc2c1C(=O)c1c(O)c3c(c(O)c1C2=O)C[C@@](O)(C(=O)CO)C[C@@H]3OC1CC(N)C(O)C(C)O1` (stereo not given in full), the T/C reads like this: (endpoint: mean tumor weight, dose: 0.25 mg/kg/injection, schedule: Q01DX009 (ip), vehicle: saline) 38 % of control; (endpoint: mean tumor weight, dose: 0.5 mg/kg/injection, schedule: Q01DX009 (ip), vehicle: saline) 17 % of control; (endpoint: mean tumor weight, dose: 0.5 mg/kg/injection, schedule: Q07DX005 (ip), vehicle: saline) 85 % of control; (endpoint: mean tumor weight, dose: 0.5 mg/kg/injection, schedule: Q07DX006 (ip), vehicle: saline) 45 % of control and 55 % of control and 66 % of control; (endpoint: mean tumor weight, dose: 0.75 mg/kg/injection, schedule: Q07DX006 (ip), vehicle: saline) 46 % of control; (endpoint: mean tumor weight, dose: 1.0 mg/kg/injection, schedule: Q01DX009 (ip), vehicle: saline) 2 % of control. In addition, the T/C (endpoint: mean tumor weight, dose: 1.0 mg/kg/injection, schedule: Q07DX005 (ip), vehicle: saline) was 89 % of control; the T/C (endpoint: mean tumor weight, dose: 1.5 mg/kg/injection, schedule: Q07DX006 (ip), vehicle: saline) is 42 % of control; the T/C (endpoint: mean tumor weight, dose: 2.0 mg/kg/injection, schedule: Q07DX005 (ip), vehicle: saline) was 40 % of control; the T/C (endpoint: mean tumor weight, dose: 2.5 mg/kg/injection, schedule: Q07DX006 (ip), vehicle: saline) is 6 % of control; the T/C (endpoint: mean tumor weight, dose: 3.0 mg/kg/injection, schedule: Q07DX006 (ip), vehicle: saline) was 3 % of control; the T/C (endpoint: mean tumor weight, dose: 4.0 mg/kg/injection, schedule: Q07DX006 (ip), vehicle: saline) was 1 % of control. Moreover, the T/C is 208 % of control and 84 % of control (endpoint: median tumor weight (est.), dose: 0.25 mg/kg/injection, schedule: Q07DX005 (ip), vehicle: saline); 84 % of control (endpoint: median tumor weight (est.), dose: 0.37 mg/kg/injection, schedule: Q07DX005 (ip), vehicle: water); 62 % of control (endpoint: median tumor weight (est.), dose: 0.75 mg/kg/injection, schedule: Q07DX005 (ip), vehicle: saline); 47 % of control (endpoint: median tumor weight (est.), dose: 0.75 mg/kg/injection, schedule: Q07DX005 (ip), vehicle: water); 40 % of control (endpoint: median tumor weight (est.), dose: 1.25 mg/kg/injection, schedule: Q07DX005 (ip), vehicle: saline); 85 % of control (endpoint: median tumor weight (est.), dose: 1.5 mg/kg/injection, schedule: Q07DX005 (ip), vehicle: saline). In addition, the T/C is 81 % of control (endpoint: median tumor weight (est.), dose: 1.5 mg/kg/injection, schedule: Q07DX005 (ip), vehicle: water); 77 % of control (endpoint: median tumor weight (est.), dose: 1.8 mg/kg/injection, schedule: Q07DX005 (ip), vehicle: saline); 14 % of control (endpoint: median tumor weight (est.), dose: 2.5 mg/kg/injection, schedule: Q07DX005 (ip), vehicle: saline); 51 % of control (endpoint: median tumor weight (est.), dose: 2.7 mg/kg/injection, schedule: Q07DX005 (ip), vehicle: saline); 29 % of control (endpoint: median tumor weight (est.), dose: 3.0 mg/kg/injection, schedule: Q07DX005 (ip), vehicle: saline); 37 % of control (endpoint: median tumor weight (est.), dose: 4.4 mg/kg/injection, schedule: Q01DX001 (ip), vehicle: saline). In addition, the T/C was 11 % of control (endpoint: median tumor weight (est.), dose: 4.4 mg/kg/injection, schedule: Q07DX004 (ip), vehicle: saline); 30 % of control (endpoint: median tumor weight (est.), dose: 6.0 mg/kg/injection, schedule: Q07DX005 (ip), vehicle: saline); 28 % of control (endpoint: median tumor weight (est.), dose: 6.7 mg/kg/injection, schedule: Q01DX001 (ip), vehicle: saline); 5 % of control (endpoint: median tumor weight (est.), dose: 6.7 mg/kg/injection, schedule: Q07DX004 (ip), vehicle: saline); 1 % of control (endpoint: median tumor weight (est.), dose: 8.0 mg/kg/injection, schedule: Q07DX005 (ip), vehicle: water); 15 % of control (endpoint: median tumor weight (est.), dose: 10.0 mg/kg/injection, schedule: Q01DX001 (ip), vehicle: saline). Moreover, the T/C by setting is: (endpoint: median tumor weight (est.), dose: 15.0 mg/kg/injection, schedule: Q01DX001 (ip), vehicle: saline) 6 % of control; (endpoint: median tumor weight change, dose: 1.25 mg/kg/injection, schedule: Q01DX001 (ip), vehicle: water) 115 % of control; (endpoint: median tumor weight change, dose: 2.5 mg/kg/injection, schedule: Q01DX001 (ip), vehicle: water) 81 % of control; (endpoint: median tumor weight change, dose: 3.75 mg/kg/injection, schedule: Q01DX001 (ip), vehicle: saline) 96 % of control; (endpoint: median tumor weight change, dose: 4.4 mg/kg/injection, schedule: Q01DX001 (ip), vehicle: water) 27 % of control; (endpoint: median tumor weight change, dose: 5.0 mg/kg/injection, schedule: Q01DX001 (ip), vehicle: water) 18 % of control. For the same molecule, the T/C runs as follows: (endpoint: median tumor weight change, dose: 6.7 mg/kg/injection, schedule: Q01DX001 (ip), vehicle: water) -5 % of control; (endpoint: median tumor weight change, dose: 7.5 mg/kg/injection, schedule: Q01DX001 (ip), vehicle: saline) 82 % of control; (endpoint: median tumor weight change, dose: 15.0 mg/kg/injection, schedule: Q01DX001 (ip), vehicle: water) -49 % of control.

For `CO[C@H]1C[C@@H]2CC[C@@H](C)[C@@](O)(O2)C(=O)C(=O)N2CCCC[C@H]2C(=O)O[C@H]([C@H](C)C[C@@H]2CC[C@@H](O)[C@H](OC)C2)CC(=O)[C@H](C)C=C(C)[C@@H](O)[C@@H](OC)C(=O)[C@H](C)C[C@H](C)/C=C/C=C/C=C1C`, the T/C (endpoint: median tumor weight (est.), dose: 3.12 mg/kg/injection, schedule: Q07DX005 (ip), vehicle: clinical formulation) is 48 % of control; the T/C (endpoint: median tumor weight (est.), dose: 3.12 mg/kg/injection, schedule: Q07DX005 (ip), vehicle: saline with Tween-80) is 54 % of control; the T/C (endpoint: median tumor weight (est.), dose: 6.25 mg/kg/injection, schedule: Q07DX005 (ip), vehicle: clinical formulation) was 58 % of control; the T/C under setting [1] was 49 % of control; the T/C (endpoint: median tumor weight (est.), dose: 12.5 mg/kg/injection, schedule: Q07DX005 (ip), vehicle: clinical formulation) was 77 % of control; the T/C under setting [2] is 29 % of control and 40 % of control. For the same molecule, the T/C reads like this: (endpoint: median tumor weight (est.), dose: 25.0 mg/kg/injection, schedule: Q07DX005 (ip), vehicle: clinical formulation) 60 % of control; (endpoint: median tumor weight (est.), dose: 25.0 mg/kg/injection, schedule: Q07DX005 (ip), vehicle: saline with Tween-80) 25 % of control and 31 % of control; (endpoint: median tumor weight (est.), dose: 50.0 mg/kg/injection, schedule: Q07DX005 (ip), vehicle: clinical formulation) 50 % of control; (endpoint: median tumor weight (est.), dose: 50.0 mg/kg/injection, schedule: Q07DX005 (ip), vehicle: saline with Tween-80) 22 % of control and 23 % of control; (endpoint: median tumor weight (est.), dose: 100.0 mg/kg/injection, schedule: Q07DX005 (ip), vehicle: clinical formulation) 63 % of control; (endpoint: median tumor weight (est.), dose: 100.0 mg/kg/injection, schedule: Q07DX005 (ip), vehicle: saline with Tween-80) 14 % of control and 20 % of control. Besides, the T/C (endpoint: median tumor weight (est.), dose: 200.0 mg/kg/injection, schedule: Q07DX005 (ip), vehicle: clinical formulation) is 22 % of control; the T/C (endpoint: median tumor weight (est.), dose: 200.0 mg/kg/injection, schedule: Q07DX005 (ip), vehicle: saline with Tween-80) is 10 % of control and 23 % of control.

Consider `Nc1nncs1`, for which the T/C by setting is: (endpoint: median tumor weight (est.), dose: 25.0 mg/kg/injection, schedule: Q07DX005 (ip), vehicle: Klucel (hydroxypropylcellulose) (HPC)) 72 % of control and 85 % of control; under setting [3], 44 % of control and 62 % of control; under setting [4], 34 % of control; (endpoint: median tumor weight (est.), dose: 400.0 mg/kg/injection, schedule: Q07DX005 (ip), vehicle: Klucel (hydroxypropylcellulose) (HPC)) 24 % of control and 49 % of control.

Take `COc1cc(OC)c(OC)cc1/C=C\c1ccnc2ccccc12`: the T/C under setting [3] is 86 % of control; the T/C under setting [4] was 55 % of control; the T/C (endpoint: median tumor weight (est.), dose: 200.0 mg/kg/injection, schedule: Q07DX005 (ip), vehicle: Klucel (hydroxypropylcellulose) (HPC)) is 78 % of control.

With `C1CN2CCC1CC2`, the T/C reads like this: under setting [1], 111 % of control; under setting [2], 77 % of control.

With `CC(=O)Nc1ccc(Nc2ccc(C(=C3C=CC(=[N+](C)CCC#N)C=C3)c3ccc(N(C)CCC#N)cc3)cc2)cc1`, the T/C (endpoint: median tumor weight change, dose: 125.0 mg/kg/injection, schedule: Q01DX001 (ip), vehicle: saline with Tween-80) is 67 % of control.

`Oc1cc2c3c(c1)c1cc4c(cc1c[n+]3CC2)OCO4`: the T/C runs as follows: (endpoint: median tumor weight (est.), dose: 6.25 mg/kg/injection, schedule: Q07DX005 (ip), vehicle: water) 81 % of control; (endpoint: median tumor weight (est.), dose: 12.5 mg/kg/injection, schedule: Q07DX005 (ip), vehicle: water) 83 % of control; (endpoint: median tumor weight (est.), dose: 25.0 mg/kg/injection, schedule: Q07DX005 (ip), vehicle: water) 85 % of control; (endpoint: median tumor weight (est.), dose: 50.0 mg/kg/injection, schedule: Q07DX005 (ip), vehicle: water) 94 % of control; (endpoint: median tumor weight (est.), dose: 100.0 mg/kg/injection, schedule: Q07DX005 (ip), vehicle: water) 78 % of control.

For `Cc1ccc2nc(-c3ccc4nc(-c5ccc(N=Nc6ccc(-c7nc8ccc(-c9nc%10ccc(C)c(S(=O)(=O)O)c%10s9)cc8s7)cc6)cc5)sc4c3)sc2c1S(=O)(=O)O`, the T/C reads like this: (endpoint: median tumor weight change, dose: 125.0 mg/kg/injection, schedule: Q01DX001 (ip), vehicle: suspension in saline) 94 % of control; (endpoint: median tumor weight change, dose: 250.0 mg/kg/injection, schedule: Q01DX001 (ip), vehicle: suspension in saline) 62 % of control.
